We go through one molecule from BindingDB's records for doi:10.1124/jpet.104.066092 (Wyeth Research, 2004).

The target in this test is Glutamate receptor ionotropic, NMDA 1 (Rattus norvegicus, UniProt P35439).

On to `O=C(O)[C@@H]1C[C@H](CP(=O)(O)O)CCN1` [Selfotel], for which the Ki is > 10 µM.
